≈ marks a conversion by molar mass, not a printed value.
Assays:
Assay type in all cases: physicochemical
[1] = Equilibrium solubility of 4-iodo-3-nitrobenzamide, overnight at 25° C., measured by HPLC; conditions: for solubility: 25 °C, thermodynamic from solid
Method: Excess 4-iodo-3-nitrobenzamide (“BA”) was equilibrated overnight (>16 hr) at 25° C. in purified water, 0.01M HCl (pH2), 0.01M NaOH ([…]), and 0.9% NaCl. Following dilution, the solubility of the drug was measured by HPLC.
Excess 4-iodo-3-nitrobenzamide was equilibrated overnight (>16 hr) at 25° C. in solutions of purified water containing various concentrations of cyclodextrins including hydroxypropyl-β-cyclodextrin (Kleptose® from Roquette) (HPBCD), sulfobutyl ether-β-cyclodextrin (Captisol® from Cyclex) (SBEBCD), and Hyroxypropyl-γ-cyclodextrin (Cavamax W8® from Wacker) (HPGCD). Following dilution, the solubility of the drug was measured by HPLC.
Excess 4-iodo-3-nitrobenzamide was equilibrated overnight (>16 hr) at 25° C. in purified water containing various concentrations of the surfactants: polyethylene sorbitan monooleate (Polysorbate 80), polyoxyethylene sorbitan monolaurate (Polysorbate 20), Cremophor EL (BASF), Cremophor RH40 (BASF), Poloxamer 118, and Solutol HS-15 (BASF). Following dilution, the solubility of the drug was measured by HPLC.
Excess 4-iodo-3-nitrobenzamide was equilibrated overnight (>16 hr) at 25° C. in solutions of purified water containing various co-solvents including ethanol, glycofurol, glycerin formal, benzyl alcohol, N,N, dimethylacetamide (DMA), polyethylene glycol (PEG) 400, and propylene glycol. Following dilution, the solubility of the drug was measured by HPLC.
Excess 4-iodo-3-nitrobenzamide was equilibrated overnight (>16 hr) at 25° C. in solutions in purified water containing mixtures of solubilizers. Following dilution, the solubility of the drug was measured by HPLC.

[2] = Saturated solubility of BA in solvents, 25° C., absorbance at 320 nm; conditions: thermodynamic from solid
[3] = Compounding studies: time for drug substance to dissolve in 25% HPBCD
Method: 1. 300 mg of BA was added to 30 ml of a 25% HPBCD (containing 0.6% saline) and mixed using a magnetic stirrer. The drug substance dissolved in 4 hours. This is deemed to be an unacceptably long time for a viable manufacturing process and it was decided to evaluate a procedure involving dissolving the drug substance directly in the HPBCD. 2. In a second study 500 mg of BA dissolved in a 50 ml of a 25% HPBCD vehicle (no saline) in approx 90 minutes. The dissolution rate of BA was deemed to be a more acceptable time and provides some prospect for a viable larger scale process. Further excipients could be added after the drug substance has been dissolved.

For NC(=O)c1ccc(I)c([N+](=O)[O-])c1 [BA, 4-iodo-3-nitrobenzamide], the solubility ([1]; 100% glycerin formal, organic solvent or mixture, Glycerin Formal 100%, 25° C., read-out: Solubility) was 15.1 mg/mL (≈ 51.8 mM), the solubility ([1]; 100% glycofurol, organic solvent or mixture, Glycofurol 100%, 25° C., read-out: Solubility) was 15 mg/mL (≈ 51.3 mM) and the Enhancement ([1]; Benzyl alcohol 100%) was 85.3. The Enhancement ([1]; Cremophor EL 10%) was 19.2, the Enhancement ([1]; Cremophor RH40 10%) was 18.5 and the Enhancement ([1]; DMA 5%) was 7.6. The Enhancement ([1]; DMA 100%) was 392.6, the Enhancement ([1]; Ethanol 50%) was 31.4 and the Enhancement ([1]; Ethanol 100%) was 77.2. It also gave an Enhancement ([1]; Glycerin Formal 50%) of 19.0, an Enhancement ([1]; Glycerin Formal 100%) of 83.2 and an Enhancement ([1]; Glycofurol 50%) of 54.1. For the same molecule, the Enhancement ([1]; Glycofurol 100%) was 82.3, the Enhancement ([1]; HPBCD 10%, vs no solubilizer) was 26.7 and the Enhancement ([1]; HPBCD 20%, vs no solubilizer) was 54.8. The Enhancement ([1]; HPBCD 25%, vs no solubilizer) was 63.0, the Enhancement ([1]; HPBCD 40%, vs no solubilizer) was 70.2 and the Enhancement ([1]; HPGCD 25%, vs no solubilizer) was 1.5. The Enhancement ([1]; PEG 400 50%) was 42.1, the Enhancement ([1]; Poloxamer 118 10%) was 2.4 and the Enhancement ([1]; Polysorbate 20 10%) was 20.1. It also gave an Enhancement ([1]; Polysorbate 20 100%) of 59.6, an Enhancement ([1]; Polysorbate 80 10%) of 17.2 and an Enhancement ([1]; Polysorbate 80 100%) of 92.8. The Enhancement ([1]; Propylene glycol 50%) was 12.3, the Enhancement ([1]; SBEBCD 25%, vs no solubilizer) was 60.6 and the Enhancement ([1]; Solubilizer None 0%) was 1.0. For the same molecule, the Enhancement ([1]; Solutol HS 15 25%) was 36.0, the Enhancement ([1]; Solutol HS 15 30%) was 41.0 and the solubility ([1]; purified water containing mixtures of solubilizers, aqueous with cosolvent or surfactant or cyclodextrin, 5% Polysorbate 80/10% EtOH/40% PEG 400, 25° C., read-out: Solubility) was 1.23 mg/mL (≈ 4.21 mM). For the same molecule, the solubility ([1]; purified water containing mixtures of solubilizers, aqueous with cosolvent or surfactant or cyclodextrin, 10% EtOH/10% Polysorbate 80, 25° C., read-out: Solubility) was 2.3 mg/mL (≈ 7.88 mM), the solubility ([1]; purified water containing mixtures of solubilizers, aqueous with cosolvent or surfactant or cyclodextrin, 10% EtOH/40% PEG 400, 25° C., read-out: Solubility) was 3.42 mg/mL (≈ 11.7 mM) and the solubility ([1]; purified water containing mixtures of solubilizers, aqueous with cosolvent or surfactant or cyclodextrin, 10% EtOH/40% PEG 400,/5% Benzyl Alcohol, 25° C., read-out: Solubility) was 3.11 mg/mL (≈ 10.7 mM). For the same molecule, the solubility ([1]; purified water containing mixtures of solubilizers, aqueous with cosolvent or surfactant or cyclodextrin, 10% glycofurol, 40% PEG 400, 25° C., read-out: Solubility) was 6.12 mg/mL (≈ 21 mM), the solubility ([1]; purified water, water, Purified Water, 25° C., read-out: Solubility) was 0.182 mg/mL (≈ 0.623 mM) and the solubility ([1]; water without solubilizer, water, water, no solubilizer, summary of Table 1, read-out: Solubility in water without any solubilizer) was ≤ 0.2 mg/mL. The solubility ([2]; 35% v/v DMA in Capmul PG-8, 25 °C, oil or lipid, 35% v/v DMA in Capmul PG-8, read from the graph of FIG. 2, read-out: Saturated solubility) was ~220 mg/mL (≈ 753 mM), the solubility ([2]; solvent (liquid filled capsule vehicle), 25 °C, oil or lipid, 10% v/v DMA in Capmul, 25° C., read-out: BA Solubility) was 57 mg/mL (≈ 195 mM) and the solubility ([2]; solvent (liquid filled capsule vehicle), 25 °C, oil or lipid, 20% v/v DMA in Capmul, 25° C., read-out: BA Solubility) was 89 mg/mL (≈ 305 mM). It also gave a solubility ([2]; solvent (liquid filled capsule vehicle), 25 °C, oil or lipid, 30% v/v DMA in Capmul, 25° C., read-out: BA Solubility) of 176 mg/mL (≈ 603 mM), a solubility ([2]; solvent (liquid filled capsule vehicle), 25 °C, oil or lipid, 40% DMA in Capmul, 25° C., read-out: BA Solubility) of 276 mg/mL (≈ 945 mM) and a solubility ([2]; solvent (liquid filled capsule vehicle), 25 °C, oil or lipid, 40% v/v Transcutol in Capmul, 25° C., read-out: BA Solubility) of 73 mg/mL (≈ 250 mM). It also gave a solubility ([2]; solvent (liquid filled capsule vehicle), 25 °C, oil or lipid, 100% Capmul, 25° C., read-out: BA Solubility) of 32 mg/mL (≈ 110 mM), a solubility ([2]; solvent (liquid filled capsule vehicle), 25 °C, oil or lipid, 100% Labrafil, 25° C., read-out: BA Solubility) of 18 mg/mL (≈ 61.6 mM) and a solubility ([2]; solvent (liquid filled capsule vehicle), 25 °C, organic solvent or mixture, 20% v/v glycerol, 3% v/v water in PEG 400, 25° C., read-out: BA Solubility) of 192 mg/mL (≈ 657 mM). For the same molecule, the solubility ([2]; solvent (liquid filled capsule vehicle), 25 °C, organic solvent or mixture, 25% w/v Solutol in PEG 400, 25° C., read-out: BA Solubility) was 224 mg/mL (≈ 767 mM), the solubility ([2]; solvent (liquid filled capsule vehicle), 25 °C, organic solvent or mixture, 25% w/v Vit E TPGS in PEG 400, 25° C., read-out: BA Solubility) was 204 mg/mL (≈ 699 mM) and the solubility ([2]; solvent (liquid filled capsule vehicle), 25 °C, organic solvent or mixture, 100% NMP, 25° C., read-out: BA Solubility) was 319 mg/mL (≈ 1090 mM). For the same molecule, the solubility ([2]; solvent (liquid filled capsule vehicle), 25 °C, organic solvent or mixture, 100% PEG 400, 25° C., read-out: BA Solubility) was 186 mg/mL (≈ 637 mM), the solubility ([2]; solvent (liquid filled capsule vehicle), 25 °C, organic solvent or mixture, 100% Transcutol, 25° C., read-out: BA Solubility) was 192 mg/mL (≈ 657 mM) and the “Time for drug substance to dissolve” value ([3]; 300 mg of BA in 30 ml of 25% HPBCD containing 0.6% saline, magnetic stirrer) was 4 h. The “Time for drug substance to dissolve” value ([3]; 500 mg of BA in 50 ml of 25% HPBCD vehicle (no saline)) was “approx 90 minutes”.

Source: US20100160442A1, “FORMULATIONS FOR CANCER TREATMENT” (priority 2006, published 2010)
